Laboratory results published in PubChem BioAssay AID1963975 (Molecular Pharmacology Branch, DTP, NCI, 2024).
Blank lines part the entries; values can stand above or below the compound they belong to.

System: 624824-186-R-J2-PDC multicell spheroids, viability
Assay: Anticancer human tumor 624824-186-R-J2-PDC patient-derived colon adenocarcinoma cell line growth inhibition [PI3K]
Details: for IC50: curve of first compound; for viability, T/C: stronger effect = lower value
Description: Combinatorial screen of targeted agents with the PI3K inhibitors inavolisib, alpelisib, duvelisib, and copanlisib in multi-cell type tumor spheroids
A high-throughput screen of multi-cell type tumor spheroids was designed to identify active combinations of targeted small molecules and PI3K pathway inhibitors. Complex spheroids include a stromal component modeled by human endothelial cells (HUVEC) and fibroblasts modeled by human mesenchymal stem cells (MSCs). The concentration ranges selected for each drug and investigational agent were based upon clinically achievable concentrations if the clinical Cmax of the agent was known.
Compounds. The drugs and investigational agents: inavolisib (NSC800729), alpelisib (NSC765974), duvelisib (NSC772469), copanlisib (NSC816437), ipatasertib (NSC767898), afuresertib (NSC778305), talazoparib (NSC767125), sapanisertib (NSC764658), selumetinib (NSC741078), tovorafenib (DAY101, NSC766906), vemurafenib (NSC761431), ravoxertinib (NSC781343), sotorasib (NSC818433), MRTX1133 (NSC 836407), abemaciclib (NSC 768073), palbociclib (NSC758247), venetoclax (NSC 766270), SY5609 (NSC837396), enzalutamide (NSC755605), and darolutamide (NSC825331), were obtained from the National Cancer Institute (NCI) Developmental Therapeutics Program Chemical Repository. The FDA-approved anticancer drug set is available from the NCI Developmental Therapeutics Program. […] The stock solutions were prepared in dimethyl sulfoxide (DMSO, Sigma-Aldrich, St. Louis, MO, cat. D2650) at 800-fold the tested concentration and stored at -70 degrees C prior to their use. All drugs and investigational agents were tested over a range starting from a high concentration at or near the clinical Cmax and decreasing in half-log increments. If the clinical Cmax for an agent had not been determined, the highest concentration tested was 10 microM.
Cell Culture. All cells were maintained in an incubator at 37 degrees C and 5% CO2 with 95% humidity. The PDC lines were cultured according to standard operating procedures established by the NCI PDMR (https://pdmr.cancer.gov/sops/default.htm). All PDCs were thawed and cultured in Matrigel-coated flasks prepared with a working solution of 1X Ham's F-12 nutrient mix, without supplementation (Invitrogen, Waltham, MA, cat. 11765054), 100 U/mL penicillin-streptomycin (Invitrogen, cat. 15140122), and 2.5% Matrigel (Corning Inc., Corning, NY, cat. 354248) for the first three passages. The 354836-022-R-J1-PDC, 475296-252-R-J1-PDC, and 997726-040-R-J2-PDC lines were cultured in 6A media, which includes advanced DMEM/F-12 (Thermo Fisher Scientific, cat. 12634028), 10 mM HEPES (Thermo Fisher Scientific, cat. 15630080), 1X GlutaMAX supplement (Thermo Fisher Scientific, cat. 35050061), 0.1 mg/mL primocin (InvivoGen, San Diego, CA, cat. ant-pm-2), 10% defined fetal bovine serum, heat inactivated (HyClone Laboratories Inc., Logan, UT, cat. SH30070.03HI), 50% L-WRN conditioned media (ATCC, cat. CRL-3276), 1.25 mM N-Acetyl-L-cysteine (Sigma-Aldrich, cat. A9165), 10 mM nicotinamide (Sigma-Aldrich, cat. N0636), 1X B-27 supplement (Thermo Fisher Scientific, cat. 17504044), 1X N-2 supplement (Thermo Fisher Scientific, cat. 17502048), and 10 microM Y-27632 dihydrochloride (Tocris Bioscience, Bristol, United Kingdom, cat. 1254). The 624824-186-R-J2-PDC line was cultured in 6C/Colon 1B media, which includes all 6A media components plus 50 ng/mL human EGF recombinant protein (Thermo Fisher Scientific, cat. PHG0311). […]

[1] = second compound 0.00316 µM, first compound 0.0316 µM
[2] = second compound 0.00316 µM, first compound 0.1 µM
[3] = second compound 0.00316 µM, first compound 0.316 µM
[4] = second compound 0.00316 µM, first compound 1 µM
[5] = second compound 0.00316 µM, first compound 3.16 µM
[6] = second compound 0.00316 µM, first compound 10 µM
[7] = second compound 0.01 µM, first compound 0.0316 µM
[8] = second compound 0.01 µM, first compound 0.1 µM
[9] = second compound 0.01 µM, first compound 0.316 µM
[10] = second compound 0.01 µM, first compound 1 µM
[11] = second compound 0.01 µM, first compound 3.16 µM
[12] = second compound 0.01 µM, first compound 10 µM
[13] = second compound 0.0316 µM, first compound 0.0316 µM
[14] = second compound 0.0316 µM, first compound 0.1 µM
[15] = second compound 0.0316 µM, first compound 0.316 µM
[16] = second compound 0.0316 µM, first compound 1 µM
[17] = second compound 0.0316 µM, first compound 3.16 µM
[18] = second compound 0.0316 µM, first compound 10 µM
[19] = second compound 0.1 µM, first compound 0.0316 µM
[20] = second compound 0.1 µM, first compound 0.1 µM
[21] = second compound 0.1 µM, first compound 0.316 µM
[22] = second compound 0.1 µM, first compound 1 µM
[23] = second compound 0.1 µM, first compound 3.16 µM
[24] = second compound 0.1 µM, first compound 10 µM
[25] = second compound 0.316 µM, first compound 0.0316 µM
[26] = second compound 0.316 µM, first compound 0.1 µM
[27] = second compound 0.316 µM, first compound 0.316 µM
[28] = second compound 0.316 µM, first compound 1 µM
[29] = second compound 0.316 µM, first compound 3.16 µM
[30] = second compound 0.316 µM, first compound 10 µM
[31] = second compound 1 µM, first compound 0.0316 µM
[32] = second compound 1 µM, first compound 0.1 µM
[33] = second compound 1 µM, first compound 0.316 µM
[34] = second compound 1 µM, first compound 1 µM
[35] = second compound 1 µM, first compound 3.16 µM
[36] = second compound 1 µM, first compound 10 µM
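Further: spheroids exposed to agents for 7 days before viability read.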
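Wherever viability, T/C is given: 100% = DMSO vehicle treated spheroids.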

- IC50 (second compound 0.00316 µM): > 10 µM
- IC50 (second compound 0.01 µM): > 10 µM
- IC50 (second compound 0.0316 µM): > 10 µM
- IC50 (second compound 0.1 µM): > 10 µM
- IC50 (second compound 0.316 µM): > 10 µM
- IC50 (second compound 1 µM): > 10 µM
SMILES: CC(C)NCC(C(=O)N1CCN(c2ncnc3c2C(C)CC3O)CC1)c1ccc(Cl)cc1 (stereo unspecified) + CC(Nc1ccc2c(c1)OCCn1cc(N3C(=O)OCC3C(F)F)nc1-2)C(N)=O
- viability, T/C [1]: 113%
- viability, T/C [2]: 113%
- viability, T/C [3]: 113%
- viability, T/C [4]: 94.6%
- viability, T/C [5]: 94.9%
- viability, T/C [6]: 92.1%
- viability, T/C [7]: 88.3%
- viability, T/C [8]: 79.1%
- viability, T/C [9]: 72.1%
- viability, T/C [10]: 87%
- viability, T/C [11]: 90.7%
- viability, T/C [12]: 79.7%
- viability, T/C [13]: 98%
- viability, T/C [14]: 95.4%
- viability, T/C [15]: 82.7%
- viability, T/C [16]: 92.8%
- viability, T/C [17]: 95.4%
- viability, T/C [18]: 89.4%
- viability, T/C [19]: 85.7%
- viability, T/C [20]: 84.6%
- viability, T/C [21]: 68%
- viability, T/C [22]: 84.1%
- viability, T/C [23]: 95.1%
- viability, T/C [24]: 70.8%
- viability, T/C [25]: 89.8%
- viability, T/C [26]: 68.3%
- viability, T/C [27]: 86%
- viability, T/C [28]: 86.3%
- viability, T/C [29]: 91.1%
- viability, T/C [30]: 91.5%
- viability, T/C [31]: 95.4%
- viability, T/C [32]: 87.5%
- viability, T/C [33]: 94.1%
- viability, T/C [34]: 83.6%
- viability, T/C [35]: 96.4%
- viability, T/C [36]: 74.2%

- IC50 (second compound 0.00316 µM): > 10 µM
- IC50 (second compound 0.01 µM): > 10 µM
- IC50 (second compound 0.0316 µM): > 10 µM
- IC50 (second compound 0.1 µM): > 10 µM
- IC50 (second compound 0.316 µM): > 10 µM
- IC50 (second compound 1 µM): > 10 µM
SMILES: C[C@@H](NC(=O)c1ncnc(N)c1Cl)c1ncc(C(=O)Nc2cc(C(F)(F)F)c(Cl)cn2)s1 + CC(Nc1ccc2c(c1)OCCn1cc(N3C(=O)OCC3C(F)F)nc1-2)C(N)=O
- viability, T/C [1]: 108%
- viability, T/C [2]: 107%
- viability, T/C [3]: 73.1%
- viability, T/C [4]: 59.5%
- viability, T/C [5]: 78%
- viability, T/C [6]: 77.9%
- viability, T/C [7]: 110%
- viability, T/C [8]: 86.4%
- viability, T/C [9]: 80.7%
- viability, T/C [10]: 72.8%
- viability, T/C [11]: 78.8%
- viability, T/C [12]: 77.2%
- viability, T/C [13]: 92.6%
- viability, T/C [14]: 90.5%
- viability, T/C [15]: 83%
- viability, T/C [16]: 63.5%
- viability, T/C [17]: 73.4%
- viability, T/C [18]: 78.2%
- viability, T/C [19]: 115%
- viability, T/C [20]: 99.2%
- viability, T/C [21]: 65.7%
- viability, T/C [22]: 69.4%
- viability, T/C [23]: 77.6%
- viability, T/C [24]: 68.7%
- viability, T/C [25]: 98%
- viability, T/C [26]: 77%
- viability, T/C [27]: 68.7%
- viability, T/C [28]: 68.5%
- viability, T/C [29]: 67.2%
- viability, T/C [30]: 56.6%
- viability, T/C [31]: 77%
- viability, T/C [32]: 93.7%
- viability, T/C [33]: 68.4%
- viability, T/C [34]: 63.2%
- viability, T/C [35]: 55.4%
- viability, T/C [36]: 53.1%

- IC50 (second compound 0.00316 µM): > 0.1 µM
- IC50 (second compound 0.01 µM): > 0.1 µM
- IC50 (second compound 0.0316 µM): > 0.1 µM
- IC50 (second compound 0.1 µM): > 0.1 µM
- IC50 (second compound 0.316 µM): > 0.1 µM
- IC50 (second compound 1 µM): > 0.1 µM
SMILES: Cn1ncnc1[C@H]1c2n[nH]c(=O)c3cc(F)cc(c23)N[C@@H]1c1ccc(F)cc1 + CC(Nc1ccc2c(c1)OCCn1cc(N3C(=O)OCC3C(F)F)nc1-2)C(N)=O
- viability, T/C (second compound 0.00316 µM, first compound 0.000316 µM): 78.6%
- viability, T/C (second compound 0.00316 µM, first compound 0.001 µM): 115%
- viability, T/C (second compound 0.00316 µM, first compound 0.00316 µM): 96.8%
- viability, T/C (second compound 0.00316 µM, first compound 0.01 µM): 95.4%
- viability, T/C [1]: 94.8%
- viability, T/C [2]: 82.2%
- viability, T/C (second compound 0.01 µM, first compound 0.000316 µM): 112%
- viability, T/C (second compound 0.01 µM, first compound 0.001 µM): 82.4%
- viability, T/C (second compound 0.01 µM, first compound 0.00316 µM): 92.9%
- viability, T/C (second compound 0.01 µM, first compound 0.01 µM): 90.4%
- viability, T/C [7]: 93.1%
- viability, T/C [8]: 91.5%
- viability, T/C (second compound 0.0316 µM, first compound 0.000316 µM): 96.7%
- viability, T/C (second compound 0.0316 µM, first compound 0.001 µM): 97.1%
- viability, T/C (second compound 0.0316 µM, first compound 0.00316 µM): 101%
- viability, T/C (second compound 0.0316 µM, first compound 0.01 µM): 81.3%
- viability, T/C [13]: 90.5%
- viability, T/C [14]: 89.5%
- viability, T/C (second compound 0.1 µM, first compound 0.000316 µM): 108%
- viability, T/C (second compound 0.1 µM, first compound 0.001 µM): 89%
- viability, T/C (second compound 0.1 µM, first compound 0.00316 µM): 81.2%
- viability, T/C (second compound 0.1 µM, first compound 0.01 µM): 89.8%
- viability, T/C [19]: 74.4%
- viability, T/C [20]: 84.9%
- viability, T/C (second compound 0.316 µM, first compound 0.000316 µM): 90.7%
- viability, T/C (second compound 0.316 µM, first compound 0.001 µM): 78%
- viability, T/C (second compound 0.316 µM, first compound 0.00316 µM): 81.9%
- viability, T/C (second compound 0.316 µM, first compound 0.01 µM): 98.3%
- viability, T/C [25]: 74.8%
- viability, T/C [26]: 86.1%
- viability, T/C (second compound 1 µM, first compound 0.000316 µM): 91.6%
- viability, T/C (second compound 1 µM, first compound 0.001 µM): 85.3%
- viability, T/C (second compound 1 µM, first compound 0.00316 µM): 90%
- viability, T/C (second compound 1 µM, first compound 0.01 µM): 86.2%
- viability, T/C [31]: 110%
- viability, T/C [32]: 77.9%
